Measurements published in ChEMBL document CHEMBL5649166, “RIP3 induces apoptosis independent of pronecrotic kinase activity” (Mol Cell, 2014).

Tests used:
[1] = biological target: Protein kinase C eta type (Homo sapiens) (UniProt P24723); experiment: Inhibition of human PKCeta using ERMRPRKRQGSVRRRV as substrate at 1 uM in presence of 32P-ATP by Hotspot assay relative to control; values are per cent of control
[2] = biological target: Tyrosine-protein kinase SYK (Homo sapiens) (UniProt P43405); experiment: Inhibition of human SYK using poly[Glu:Tyr] (4:1) as substrate at 1 uM in presence of 32P-ATP by Hotspot assay relative to control; values are per cent of control
[3] = biological target: T1, Serine/threonine-protein kinase Nek1 (Homo sapiens) (UniProt Q96PY6); experiment: Inhibition of human NEK1 using myelin basic protein as substrate at 1 uM in presence of 32P-ATP by Hotspot assay relative to control; values are per cent of control
T1 sequence (whole entry): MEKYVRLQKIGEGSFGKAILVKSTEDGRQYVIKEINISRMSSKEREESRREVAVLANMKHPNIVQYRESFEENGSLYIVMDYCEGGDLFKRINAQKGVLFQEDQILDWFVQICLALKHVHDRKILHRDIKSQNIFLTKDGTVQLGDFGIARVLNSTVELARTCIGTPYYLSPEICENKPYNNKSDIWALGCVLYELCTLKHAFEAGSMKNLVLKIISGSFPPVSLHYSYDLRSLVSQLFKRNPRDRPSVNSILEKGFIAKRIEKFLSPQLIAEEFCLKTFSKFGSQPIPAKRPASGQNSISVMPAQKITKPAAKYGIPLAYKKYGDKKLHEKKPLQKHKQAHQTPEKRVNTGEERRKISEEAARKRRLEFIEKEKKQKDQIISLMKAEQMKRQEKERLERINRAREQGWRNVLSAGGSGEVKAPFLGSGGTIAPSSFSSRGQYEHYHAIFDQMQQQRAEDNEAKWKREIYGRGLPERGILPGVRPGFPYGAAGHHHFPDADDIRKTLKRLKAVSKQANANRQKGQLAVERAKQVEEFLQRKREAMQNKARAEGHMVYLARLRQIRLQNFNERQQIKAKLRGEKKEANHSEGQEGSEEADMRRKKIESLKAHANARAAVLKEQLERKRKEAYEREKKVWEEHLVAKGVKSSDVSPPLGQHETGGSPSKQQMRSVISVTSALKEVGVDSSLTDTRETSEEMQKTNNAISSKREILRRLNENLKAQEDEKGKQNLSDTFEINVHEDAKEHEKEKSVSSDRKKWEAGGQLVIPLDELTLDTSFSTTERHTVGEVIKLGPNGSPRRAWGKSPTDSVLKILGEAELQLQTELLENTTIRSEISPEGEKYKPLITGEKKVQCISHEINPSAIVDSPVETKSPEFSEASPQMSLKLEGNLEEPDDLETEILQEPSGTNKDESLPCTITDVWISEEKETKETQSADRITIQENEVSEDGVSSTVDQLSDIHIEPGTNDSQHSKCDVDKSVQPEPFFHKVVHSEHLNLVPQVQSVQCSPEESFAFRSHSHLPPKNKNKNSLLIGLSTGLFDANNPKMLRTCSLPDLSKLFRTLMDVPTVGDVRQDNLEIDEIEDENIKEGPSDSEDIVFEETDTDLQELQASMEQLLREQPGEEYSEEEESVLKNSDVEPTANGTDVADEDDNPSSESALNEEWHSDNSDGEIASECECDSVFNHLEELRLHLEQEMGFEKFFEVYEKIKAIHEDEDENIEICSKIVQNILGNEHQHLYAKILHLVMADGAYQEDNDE

[4] = biological target: T2, Serine/threonine-protein kinase D2 (Homo sapiens) (UniProt Q9BZL6); experiment: Residual activity of human PKD2/PRKD2 using KKLNRTLSVA as substrate at 1 uM in presence of 32P-ATP by Hotspot assay relative to control
T2 sequence (whole entry): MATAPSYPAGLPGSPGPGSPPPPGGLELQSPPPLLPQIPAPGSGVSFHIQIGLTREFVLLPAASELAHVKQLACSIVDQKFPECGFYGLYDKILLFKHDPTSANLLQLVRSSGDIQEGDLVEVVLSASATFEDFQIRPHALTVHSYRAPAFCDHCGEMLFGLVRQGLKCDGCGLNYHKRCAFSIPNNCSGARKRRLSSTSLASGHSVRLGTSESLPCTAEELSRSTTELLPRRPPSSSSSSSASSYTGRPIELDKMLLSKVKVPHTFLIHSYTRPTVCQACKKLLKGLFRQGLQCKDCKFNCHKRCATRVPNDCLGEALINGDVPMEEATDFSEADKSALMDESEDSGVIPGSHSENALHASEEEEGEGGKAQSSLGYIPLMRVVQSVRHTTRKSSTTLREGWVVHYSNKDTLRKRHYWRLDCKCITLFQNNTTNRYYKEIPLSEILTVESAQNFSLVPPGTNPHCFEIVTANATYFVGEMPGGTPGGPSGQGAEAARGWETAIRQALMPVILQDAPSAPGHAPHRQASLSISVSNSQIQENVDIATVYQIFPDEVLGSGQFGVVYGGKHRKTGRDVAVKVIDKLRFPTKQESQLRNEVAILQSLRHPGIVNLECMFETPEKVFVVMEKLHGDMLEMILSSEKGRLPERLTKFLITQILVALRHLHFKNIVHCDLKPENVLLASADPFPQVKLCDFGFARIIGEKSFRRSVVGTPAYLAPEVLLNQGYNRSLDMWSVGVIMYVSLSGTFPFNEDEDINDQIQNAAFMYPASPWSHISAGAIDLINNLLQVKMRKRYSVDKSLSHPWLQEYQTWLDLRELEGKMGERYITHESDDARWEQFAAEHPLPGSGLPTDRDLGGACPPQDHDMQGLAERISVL

[5] = tested on: HT-29; experiment: Inhibition of TNF-alpha induced necroptosis in human HT-29 cells assessed as increase in cell viability incubated for 24 hrs in presence of zVAD and SMAC007 by Cell Titer-Glo luminescent cell viability assay; format: functional, cell-based; settings: dose 0.01-3 µM
[6] = biological target: Leukocyte tyrosine kinase receptor (Homo sapiens) (UniProt P29376); experiment: Inhibition of human TYK1/LTK using EAIYAAPFAKKK as substrate at 1 uM in presence of 32P-ATP by Hotspot assay relative to control; values are per cent of control
Chain of Leukocyte tyrosine kinase receptor (Homo sapiens) (P29376 whole entry): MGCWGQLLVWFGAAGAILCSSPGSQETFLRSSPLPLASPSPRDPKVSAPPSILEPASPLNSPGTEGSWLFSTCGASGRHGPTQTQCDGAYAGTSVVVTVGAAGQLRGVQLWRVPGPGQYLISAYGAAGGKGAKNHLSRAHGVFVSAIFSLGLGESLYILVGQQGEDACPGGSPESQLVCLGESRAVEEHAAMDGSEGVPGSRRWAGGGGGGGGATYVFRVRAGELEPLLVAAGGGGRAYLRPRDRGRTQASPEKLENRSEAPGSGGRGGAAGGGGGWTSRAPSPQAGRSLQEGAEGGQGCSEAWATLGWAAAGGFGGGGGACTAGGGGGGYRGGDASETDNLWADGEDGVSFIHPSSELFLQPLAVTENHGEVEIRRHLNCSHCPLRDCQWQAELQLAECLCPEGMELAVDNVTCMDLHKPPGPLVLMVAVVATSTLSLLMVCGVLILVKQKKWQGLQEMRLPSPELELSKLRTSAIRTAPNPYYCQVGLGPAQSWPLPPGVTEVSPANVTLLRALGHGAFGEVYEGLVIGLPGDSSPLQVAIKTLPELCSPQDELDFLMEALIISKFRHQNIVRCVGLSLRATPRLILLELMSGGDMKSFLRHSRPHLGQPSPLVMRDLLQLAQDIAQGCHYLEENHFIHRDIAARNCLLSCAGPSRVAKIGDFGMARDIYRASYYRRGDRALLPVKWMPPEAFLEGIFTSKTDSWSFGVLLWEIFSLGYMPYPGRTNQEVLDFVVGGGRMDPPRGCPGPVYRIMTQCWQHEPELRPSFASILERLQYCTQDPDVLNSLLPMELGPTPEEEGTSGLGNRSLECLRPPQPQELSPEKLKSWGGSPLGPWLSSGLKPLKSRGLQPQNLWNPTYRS

[7] = biological target: Tyrosine-protein kinase Fes/Fps (Homo sapiens) (UniProt P07332); experiment: Inhibition of human FES/FPS using poly[Glu:Tyr] (4:1) as substrate at 1 uM in presence of 32P-ATP by Hotspot assay relative to control; values are per cent of control
Chain of Tyrosine-protein kinase Fes/Fps (Homo sapiens) (P07332 whole entry): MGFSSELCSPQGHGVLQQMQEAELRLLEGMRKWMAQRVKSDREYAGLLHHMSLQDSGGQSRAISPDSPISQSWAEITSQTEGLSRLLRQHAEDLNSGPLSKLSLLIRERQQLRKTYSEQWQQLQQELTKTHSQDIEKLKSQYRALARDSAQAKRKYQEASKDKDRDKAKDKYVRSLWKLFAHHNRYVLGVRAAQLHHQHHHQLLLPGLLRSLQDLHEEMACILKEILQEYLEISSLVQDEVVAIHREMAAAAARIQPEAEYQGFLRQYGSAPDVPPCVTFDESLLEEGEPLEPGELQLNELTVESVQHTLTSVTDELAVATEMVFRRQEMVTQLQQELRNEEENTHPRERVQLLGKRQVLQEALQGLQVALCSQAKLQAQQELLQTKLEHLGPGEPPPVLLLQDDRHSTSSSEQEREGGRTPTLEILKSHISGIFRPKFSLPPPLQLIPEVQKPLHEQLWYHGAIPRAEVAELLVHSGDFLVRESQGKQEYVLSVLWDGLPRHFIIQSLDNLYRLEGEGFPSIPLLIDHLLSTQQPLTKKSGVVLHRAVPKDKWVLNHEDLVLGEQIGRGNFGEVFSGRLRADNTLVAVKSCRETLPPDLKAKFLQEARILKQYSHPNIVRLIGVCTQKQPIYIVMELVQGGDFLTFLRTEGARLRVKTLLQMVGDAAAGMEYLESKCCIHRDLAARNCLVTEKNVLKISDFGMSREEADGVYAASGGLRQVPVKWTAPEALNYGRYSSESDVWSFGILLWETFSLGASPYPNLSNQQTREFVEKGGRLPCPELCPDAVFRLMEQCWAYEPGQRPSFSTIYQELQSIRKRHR

Chain of Protein kinase C eta type (Homo sapiens) (P24723 whole entry): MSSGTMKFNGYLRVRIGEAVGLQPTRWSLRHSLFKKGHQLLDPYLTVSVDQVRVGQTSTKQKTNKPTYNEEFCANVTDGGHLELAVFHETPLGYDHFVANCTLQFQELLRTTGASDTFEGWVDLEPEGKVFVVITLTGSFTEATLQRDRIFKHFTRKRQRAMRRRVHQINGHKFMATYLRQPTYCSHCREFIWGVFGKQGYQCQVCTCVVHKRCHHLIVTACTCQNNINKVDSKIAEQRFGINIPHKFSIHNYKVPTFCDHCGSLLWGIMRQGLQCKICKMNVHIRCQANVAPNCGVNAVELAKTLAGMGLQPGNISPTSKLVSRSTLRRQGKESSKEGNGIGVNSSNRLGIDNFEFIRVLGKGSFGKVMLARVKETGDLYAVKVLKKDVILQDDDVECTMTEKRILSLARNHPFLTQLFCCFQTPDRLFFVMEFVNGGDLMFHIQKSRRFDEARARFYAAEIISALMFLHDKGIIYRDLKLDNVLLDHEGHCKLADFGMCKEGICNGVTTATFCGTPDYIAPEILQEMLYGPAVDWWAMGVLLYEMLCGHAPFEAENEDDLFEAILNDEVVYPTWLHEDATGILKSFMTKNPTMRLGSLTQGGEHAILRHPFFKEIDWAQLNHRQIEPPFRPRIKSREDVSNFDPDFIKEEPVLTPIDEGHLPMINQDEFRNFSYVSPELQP

Row | SMILES | residual activity [1] | residual activity [2] | residual activity [3] | residual activity [4] | inhibition [5] | residual activity [6] | residual activity [7]
1 | CC(C)S(=O)(=O)c1ccc2nccc(Nc3ccc4scnc4c3)c2c1 | 88% | 93.3% | 88.2% | 101% | Dose-Dependent Effect | 98.3% | 86.1%
2 | Cc1cc(-c2cnc(N)c3c(-c4ccc5scnc5c4)csc23)n(C)n1 | 73.6% | 92.8% | 97.3% | 39.4% | Dose-Dependent Effect | 73.8% | 95%
3 | CNC(=O)c1ccc2c(c1)ncn2-c1ccc(CC(=O)OC(C)(C)C)cc1 | 92.5% | 87.5% | 96.4% | 99% | Dose-Dependent Effect | 101% | 98.1%
